Laboratory results reported in ChEMBL document CHEMBL1268951, “Polyamide amino acids trimers as TAR RNA ligands and anti-HIV agents” (Bioorg Med Chem, 2010).
Calls of active or inactive are those of the source. The calls are words filed in the database; no cut-off is given here. Where a SMILES comes first, the peptide text is derived from it.

Experiment: Inhibition of HIV1 Tat/TAR interaction at 1 to 400 uM by FRET based competition assay

Row | inhibition | Structure (SMILES)
1 | Active | NCCCC[C@H](NC(=O)CN(CCNC(=O)[C@@H](N)Cc1ccccc1)C(=O)[C@H](CCCCNC(=O)OCc1ccccc1)NC(=O)OCc1ccccc1)C(=O)O
2 | Active | NCCCC[C@H](N)C(=O)NCCN(CC(=O)N[C@@H](Cc1ccccc1)C(=O)O)C(=O)[C@H](Cc1ccccc1)NC(=O)OCc1ccccc1
3 | Active | N=C(N)NCCC[C@H](NC(=O)CN(CCNC(=O)[C@@H](N)Cc1ccccc1)C(=O)[C@H](CCCN(C(=N)NC(=O)OCc1ccccc1)C(=O)OCc1ccccc1)NC(=O)OCc1ccccc1)C(=O)O
4 | Active | N=C(N)NCCC[C@H](NC(=O)CN(CCNC(=O)[C@@H](N)CCCNC(=N)N)C(=O)[C@H](CCCN(C(=N)NC(=O)OCc1ccccc1)C(=O)OCc1ccccc1)NC(=O)OCc1ccccc1)C(=O)O
5 | Active | C[C@H](N)C(=O)NCCN(CC(=O)N[C@@H](C)C(=O)O)C(=O)[C@H](C)NC(=O)OCc1ccccc1
6 | Active | C[C@H](NC(=O)CN(CCNC(=O)[C@@H](N)Cc1ccccc1)C(=O)[C@H](C)NC(=O)OCc1ccccc1)C(=O)O
7 | Active | C[C@H](NC(=O)CN(CCNC(=O)[C@@H](N)CCCCN)C(=O)[C@H](C)NC(=O)OCc1ccccc1)C(=O)O
8 | Active | C[C@H](NC(=O)CN(CCNC(=O)[C@@H](N)CCCNC(=N)N)C(=O)[C@H](C)NC(=O)OCc1ccccc1)C(=O)O
9 | Active | C[C@H](NC(=O)[C@@H](N)CCCNC(=N)N)C(=O)N[C@@H](CCCCN)C(=O)O (H-Arg-Ala-Lys-OH)
10 | Active | N=C(N)NCCC[C@H](NC(=O)[C@H](CCCNC(=N)N)NC(=O)[C@@H](N)CCCNC(=N)N)C(=O)O (H-Arg-Arg-Arg-OH)
11 | Active | N=C(N)NCCC[C@H](NC(=O)[C@@H](N)CCCNC(=N)N)C(=O)N[C@@H](CCCCN)C(=O)O (H-Arg-Arg-Lys-OH)
12 | Active | N=C(N)NCCC[C@H](NC(=O)[C@H](CCCCN)NC(=O)[C@@H](N)CCCNC(=N)N)C(=O)O (H-Arg-Lys-Arg-OH)
13 | Active | N=C(N)NCCC[C@H](N)C(=O)N[C@@H](Cc1ccccc1)C(=O)N[C@@H](CCCCN)C(=O)O (H-Arg-Phe-Lys-OH)
14 | Active | N=C(N)NCCC[C@H](NC(=O)[C@@H](N)Cc1ccccc1)C(=O)N[C@@H](Cc1ccccc1)C(=O)O (H-Phe-Arg-Phe-OH)
15 | Active | NCCCC[C@H](NC(=O)[C@H](CCCCN)NC(=O)[C@@H](N)Cc1ccccc1)C(=O)O (H-Phe-Lys-Lys-OH)
16 | Active | NCCCC[C@H](NC(=O)[C@H](Cc1ccccc1)NC(=O)[C@@H](N)Cc1ccccc1)C(=O)O (H-Phe-Phe-Lys-OH)

The remaining lines, values behind:

Row | Structure (SMILES) | inhibition
17 | C[C@H](N)C(=O)NCCN(CC(=O)N[C@@H](Cc1ccccc1)C(=O)O)C(=O)[C@H](Cc1ccccc1)NC(=O)OCc1ccccc1 | Active
18 | N[C@@H](Cc1ccccc1)C(=O)NCCN(CC(=O)N[C@@H](Cc1ccccc1)C(=O)O)C(=O)[C@H](Cc1ccccc1)NC(=O)OCc1ccccc1 | Active
19 | N=C(N)NCCC[C@H](N)C(=O)NCCN(CC(=O)N[C@@H](Cc1ccccc1)C(=O)O)C(=O)[C@H](Cc1ccccc1)NC(=O)OCc1ccccc1 | Active
20 | C[C@H](N)C(=O)NCCN(CC(=O)N[C@@H](CCCCN)C(=O)O)C(=O)[C@H](CCCCNC(=O)OCc1ccccc1)NC(=O)OCc1ccccc1 | Active
21 | NCCCC[C@H](NC(=O)CN(CCNC(=O)[C@@H](N)CCCCN)C(=O)[C@H](CCCCNC(=O)OCc1ccccc1)NC(=O)OCc1ccccc1)C(=O)O | Active
22 | N=C(N)NCCC[C@H](N)C(=O)NCCN(CC(=O)N[C@@H](CCCCN)C(=O)O)C(=O)[C@H](CCCCNC(=O)OCc1ccccc1)NC(=O)OCc1ccccc1 | Active
23 | C[C@H](N)C(=O)NCCN(CC(=O)N[C@@H](CCCNC(=N)N)C(=O)O)C(=O)[C@H](CCCN(C(=N)NC(=O)OCc1ccccc1)C(=O)OCc1ccccc1)NC(=O)OCc1ccccc1 | Active
24 | N=C(N)NCCC[C@H](NC(=O)CN(CCNC(=O)[C@@H](N)CCCCN)C(=O)[C@H](CCCN(C(=N)NC(=O)OCc1ccccc1)C(=O)OCc1ccccc1)NC(=O)OCc1ccccc1)C(=O)O | Active
25 | N=C(N)NCCC[C@H](N)C(=O)N[C@@H](CCCCN)C(=O)N[C@@H](CCCCN)C(=O)O (H-Arg-Lys-Lys-OH) | Active
26 | N=C(N)NCCC[C@H](NC(=O)[C@H](Cc1ccccc1)NC(=O)[C@@H](N)CCCNC(=N)N)C(=O)O (H-Arg-Phe-Arg-OH) | Active
27 | C[C@H](NC(=O)[C@H](C)NC(=O)[C@@H](N)CCCCN)C(=O)O (H-Lys-Ala-Ala-OH) | Active
28 | C[C@H](NC(=O)[C@H](CCCCN)NC(=O)[C@@H](N)CCCCN)C(=O)O (H-Lys-Lys-Ala-OH) | Active
29 | C[C@H](NC(=O)[C@H](Cc1ccccc1)NC(=O)[C@@H](N)CCCCN)C(=O)O (H-Lys-Phe-Ala-OH) | Active
30 | C[C@H](NC(=O)[C@@H](N)Cc1ccccc1)C(=O)N[C@@H](Cc1ccccc1)C(=O)O (H-Phe-Ala-Phe-OH) | Active
31 | N=C(N)NCCC[C@H](NC(=O)[C@@H](N)Cc1ccccc1)C(=O)N[C@@H](CCCCN)C(=O)O (H-Phe-Arg-Lys-OH) | Active
32 | NCCCC[C@H](NC(=O)[C@@H](N)Cc1ccccc1)C(=O)N[C@@H](Cc1ccccc1)C(=O)O (H-Phe-Lys-Phe-OH) | Active
33 | N[C@@H](Cc1ccccc1)C(=O)N[C@@H](Cc1ccccc1)C(=O)N[C@@H](Cc1ccccc1)C(=O)O (H-Phe-Phe-Phe-OH) | Active
